This note sets out measurements from patent publication US20080113042A1, “PHARMACEUTICAL COMPOSITION AND METHOD FOR CANCER TREATMENT BASED ON COMBINATIONAL USE OF CONVENTIONAL ANTICANCER AGENTS AND GERANIUM OIL OR COMPOUNDS THEREOF” (priority 2006, published 2008).

In general, IC50 refers to the midpoint of a concentration-inhibition curve.

In brackets after ≈: the same amount, converted by molar mass. A value given as a limit tells only on which side of the number the result lay.

Test [1] deals with MDA-MB-231. Description: In vitro cytotoxicity, MTT assay. The conditions noted are these: Homo sapiens, MDA-MB-231 (breast), 48 hours. The format is cell-based. (Tetrazolium dyes change colour on reduction, which living cells bring about.)
Test [2] deals with NCI-H838. Nature of the test: In vitro cytotoxicity, MTT assay. The conditions noted are these: Homo sapiens, NCI-H838 (lung), 48 hours. Type of test: cell-based.
In test [3] the test system is A-549. Description: In vitro cytotoxicity, MTT assay. The format is cell-based. The conditions noted are these: Homo sapiens, A549, A-549 (lung), 48 hours.
Test [4] deals with NCI-H1437. Description: In vitro cytotoxicity, MTT assay. Type of test: cell-based. Conditions: Homo sapiens, NCI-H1437 (lung), 48 hours.
Test [5] concerns subcutaneously implanted solid tumors induced by MDA-MB-231 cells. Nature of the test: In vivo antitumor efficacy test, breast tumor-bearing nude mice. The conditions noted are these: MDA-MB-231 tumors in nude mice, intraperitoneally twice a week for 28 days; paclitaxel 5 mg/kg alone or paclitaxel 0.2 mg/kg + geraniol 45 mg/kg; p<0.001.
Protocol: The antitumor efficacy of composition comprising paclitaxel and geraniol against the subcutaneously implanted solid tumors induced by MDA-MB-231 cells in nude mice was evaluated. Treatments were initiated when the tumors inoculated in nude mice reached a tumor volume of 50-100 mm^3, and this day was designated as Day 1. Mice were divided into 3 different groups consisting of five mice in each group, and administered intraperitoneally with normal saline (control), paclitaxel (5 mg/kg) in normal saline, or composition comprising paclitaxel (0.2 mg/kg) and geraniol (45 mg/kg) twice a week for 28 days. The size of tumor and change of body weight of each mouse were recorded.
The anticancer efficacy of the paclitaxel-geraniol composition was studied in breast tumor-bearing nude mice. […] In the control, mice were injected with normal saline. In Paclitaxel, mice were injected with paclitaxel (5 mg/kg) in normal saline. In the Paclitaxel-geraniol composition, mice were injected with composition comprising paclitaxel (0.2 mg/kg) and geraniol in normal saline.
Test [6] relates to SK-OV-3. Description: In vitro cytotoxicity, MTT assay. The format is cell-based. The conditions noted are these: Homo sapiens, SK-OV-3 (ovary), 48 hours.
The subject of test [7] is MCF-7. Nature of the test: In vitro cytotoxicity, MTT assay. Conditions: Homo sapiens, MCF7, MCF-7 (breast), 48 hours. Type of test: cell-based.

`CC(=O)O[C@H]1C(=O)[C@@]2(C)[C@H]([C@H](OC(=O)c3ccccc3)[C@]3(O)C[C@H](OC(=O)[C@H](O)[C@@H](NC(=O)c4ccccc4)c4ccccc4)C(C)=C1C3(C)C)[C@]1(OC(C)=O)CO[C@@H]1C[C@@H]2O` [Paclitaxel, paclitaxel]: the IC50 in test [1] turned out to be 31.9 µg/mL (≈ 37.4 µM); in test [2] it was 30.9 µg/mL (≈ 36.2 µM); in test [3], 20.1 µg/mL (≈ 23.5 µM); in test [4] it was 36.8 µg/mL (≈ 43.1 µM); in test [6], 56.5 µg/mL (≈ 66.2 µM); in test [7], 46 µg/mL (≈ 53.9 µM). The “tumor growth (size of tumor) versus control group” value in test [5] was “significantly suppressed the tumor growth in a similar manner”.
Turning to `O=c1[nH]cc(F)c(=O)[nH]1` [Composition 5-FU, Fluorouracil], the IC50 was 328 µg/mL (≈ 2520 µM) in test [1]; 12.1 µg/mL (≈ 93 µM) in test [2]; 5.9 µg/mL (≈ 45.4 µM) in test [3]; above 100 µg/mL in test [4]; 66.6 µg/mL (≈ 512 µM) in test [6]; 38.7 µg/mL (≈ 298 µM) in test [7].
